Measurements from article PMC6520840, “Antimicrobial and Antibiofilm Effects of Peptides from Venom of Social Wasp and Scorpion on Multidrug-Resistant Acinetobacter baumannii” (Toxins, 2019).
No end group written: not given here.

What was measured:
[1] = tested on: A. baumannii isolate AB 02; conditions: cited from earlier work
Procedure: (§1) In this work, three A. baumannii isolates previously described by Castilho et al. that were isolated from patients with hospital-acquired infections were used. Isolates AB 02 and AB 72 were resistant to ampicillin, amikacin, and ciprofloxacin. AB 53 isolate only presented resistance to ampicillin. […] Thus, AB 02 and AB 72 were considered as MDR strains. The ability to form biofilms by A. baumannii isolates AB 02, AB 53 and AB 72 was determined by crystal violet staining ...

[2] = tested on: A. baumannii isolate AB 72; conditions: cited from earlier work
Procedure: as §1

[3] = tested on: A. baumannii isolate AB 53; conditions: cited from earlier work
Procedure: as §1

[4] = tested on: A. baumannii isolate AB 02 biofilm; assay: Inhibition of biofilm formation on polystyrene plates (MBEC), crystal violet; assay type: cell-based, Acinetobacter baumannii; conditions: for Minimal inhibitory concentration against the formation of A. baumannii biofilm (MBEC): Isolate AB 02, polystyrene plate, LB 1/4 + 0.2% glucose, 29 °C, 24 h, crystal violet, OD 595 nm, peptides 25 to 1.56 μM
Procedure: […] [71] methodology with minor modifications. Initially, A. baumannii strains (AB 02, AB 53, and AB 72) were grown for 6 h in LB broth until reaching an optimum growth of 1.0 in the optical density of 600 nm and then the culture concentration was adjusted to 1.5 × 10^8 CFU/mL and 30 μL of the culture was added to the wells containing 170 μL de LB ¼ + 0.2% glucose containing serially diluted peptides ranging from 25 to 1.56 μM. Cells were incubated at 29 °C for 24 h to let biofilms be formed. The supernatant was removed and the wells were washed with 200 μL of PBS twice to remove the non-adherent and weakly adherent cells, maintaining only the mature biofilm formed on the plate. Biofilm quantification was measured by staining attached cells with 0.2% (w/v) violet crystal staining solubilized with ethanol/acetone (80/20 v/v) and quantified at 595 nm. The biofilms formed in cultures with different peptide concentrations were compared with the biofilms formed in cultures of A. baumannii strains without peptides. Analyses were performed in triplicate and three independent experiments were performed for each of these assays.

[5] = tested on: A. baumannii isolate AB 53 biofilm; assay: as above; assay type: cell-based, Acinetobacter baumannii; conditions: for Minimal inhibitory concentration against the formation of A. baumannii biofilm (MBEC): Isolate AB 53, polystyrene plate, LB 1/4 + 0.2% glucose, 29 °C, 24 h, crystal violet, OD 595 nm, peptides 25 to 1.56 μM
Procedure: (§2) In order to determine if individual peptides could avoid biofilm formation, the minimal biofilm eradication concentration (MBEC) determination assay was performed using 96-well […] plates according to Feng et al. methodology with minor modifications. Initially, A. baumannii strains (AB 02, AB 53, and AB 72) were grown for 6 h in LB broth until reaching an optimum growth of 1.0 in the optical density of 600 nm and then the culture concentration was adjusted to 1.5 × 10^8 CFU/mL and 30 μL of the culture was added to the wells containing 170 μL de LB ¼ + 0.2% glucose containing serially diluted peptides ranging from 25 to 1.56 μM. Cells were incubated at 29 °C for 24 h to let biofilms be formed. The supernatant was removed and the wells were washed with 200 μL of PBS twice to remove the non-adherent and weakly adherent cells, maintaining only the mature biofilm formed on the plate. Biofilm quantification was measured by staining attached cells with 0.2% (w/v) violet crystal staining solubilized with ethanol/acetone (80/20 v/v) and quantified at 595 nm. The biofilms formed in cultures with different peptide concentrations were compared with the biofilms formed in cultures of A. baumannii strains without peptides. Analyses were performed in triplicate and three independent experiments were performed for each of these assays.

[6] = tested on: A. baumannii isolate AB 72 biofilm; assay: as above; assay type: cell-based, Acinetobacter baumannii; conditions: for Minimal inhibitory concentration against the formation of A. baumannii biofilm (MBEC): Isolate AB 72, polystyrene plate, LB 1/4 + 0.2% glucose, 29 °C, 24 h, crystal violet, OD 595 nm, peptides 25 to 1.56 μM
Procedure: as §2

[7] = tested on: A. baumannii isolate AB 02; assay: Minimum inhibitory concentration (MIC), broth microdilution; assay type: cell-based, Acinetobacter baumannii; conditions: peptides 25 to 1.56 μM, 24 h at 37 °C, OD 405 nm, triplicates
Procedure: (§3) The minimum inhibitory concentration was determined by broth microdilution according to Wiegand et al.. The AB 02, […] and AB 72 isolates were grown in LB broth medium for 8 h at 37 °C until they reached a growth turbidity corresponding to 0.5 of the McFarland scale. Thirty microliters of each culture were added in the wells of polystyrene plates containing 170 µL of culture medium with different concentrations of the antimicrobial peptides. Agelaia-MPI, Polybia-MPII, Polydim-I, Con10 and NDBP 5.8 antimicrobial peptides were serially diluted from 25 to 1.56 μM. The plate containing different concentrations of individual peptides with the bacterial strains were incubated for 24 h at 37 °C, after which time the plates were read at the optical density of 405 nm. As positive control, bacterial strains without peptides were grown in the same conditions, and as negative control medium alone was used.

[8] = tested on: A. baumannii isolate AB 72; assay: as above; assay type: cell-based, Acinetobacter baumannii; conditions: peptides 25 to 1.56 μM, 24 h at 37 °C, OD 405 nm, triplicates
Procedure: as §3

[9] = tested on: A. baumannii isolate AB 53; assay: as above; assay type: cell-based, Acinetobacter baumannii; conditions: peptides 25 to 1.56 μM, 24 h at 37 °C, OD 405 nm, triplicates
S. epidermidis biofilm = assay type: cell-based, Staphylococcus epidermidis; conditions: peptide at 12.5 μM, crystal violet
Procedure: (§4) To determine the formation of the biofilm of Staphylococcus spp., the methodology according to Kwasny and Opperman (2010) with modifications was used. Staphylococcus epidermidis and methicillin-resistant Staphylococcus aureus (MRSA) cryopreserved strains at −80 °C were reactivated in solid medium to obtain an isolated colony, which was inoculated in LB medium broth and cultured at 37 °C until they reached a concentration corresponding to 0.5 turbidity of the MacFarland scale. At that concentration, 30 μL of the bacterial culture was added to wells containing 170 μL of tryptic soy broth (HiMedia) broth with 1% glucose. The plate was incubated at 37 °C for 24 h. After this period the bacterial growth was quantified by optical density reading at 600 nm and the formation of the biofilm was determined by the colorimetric method similar to that used for Acinetobacter. The biofilm inhibition test also followed the standard for the previous tests, with modifications in the culture medium used to increase the bacterial biofilm production by Staphylococcus strains.

[10] = tested on: methicillin-resistant S. aureus (MRSA) biofilm; assay type: cell-based, Staphylococcus aureus; conditions: peptide at 12.5 μM, crystal violet
Procedure: as §4

Compound	Antibiotic susceptibility category [1]	Antibiotic susceptibility category [2]	Antibiotic susceptibility category [3]	Minimal inhibitory concentration against the formation of A. baumannii biofilm (MBEC) [4]	Minimal inhibitory concentration against the formation of A. baumannii biofilm (MBEC) [5]	Minimal inhibitory concentration against the formation of A. baumannii biofilm (MBEC) [6]	MIC [7]	MIC [8]	MIC [9]	also measured
NCC[C@H](O)C(=O)N[C@@H]1C[C@H](N)[C@@H](O[C@H]2O[C@H](CN)[C@@H](O)[C@H](O)[C@H]2O)[C@H](O)[C@H]1O[C@H]1O[C@H](CO)[C@@H](O)[C@H](N)[C@H]1O [amikacin]	resistant	resistant								
CC1(C)S[C@@H]2[C@H](NC(=O)[C@H](N)c3ccccc3)C(=O)N2[C@H]1C(=O)O [ampicillin]	resistant	resistant	resistance							
O=C(O)c1cn(C2CC2)c2cc(N3CCNCC3)c(F)cc2c1=O [ciprofloxacin]	resistant	resistant								
C[C@@H](O)[C@H]1C(=O)N2C(C(=O)O)=C(S[C@@H]3CN[C@H](C(=O)N(C)C)C3)[C@H](C)[C@H]12 [meropenem]		susceptible	susceptible							
CN(C)[C@@H]1C(O)=C(C(N)=O)C(=O)[C@@]2(O)C(O)=C3C(=O)c4c(O)cccc4[C@@](C)(O)[C@H]3C[C@@H]12 [tetracycline]	intermediate susceptibility	intermediate susceptibility	intermediate susceptibility							
AVAGEKLWLLPHLLKMLLTPTP-NH2 [Polydim-I]				>25 µM	>25 µM	>25 µM				
FWSFLVKAASKILPSLIGGGDDNKSSS-NH2 [Con10]				25 µM	12.5 µM	12.5 µM	12.5 µM	6.25 µM	6.25 µM	
GILGKIWEGVKSLI-NH2 [NDBP-5.8]				>25 µM	>25 µM	>25 µM	25 µM	25 µM	25 µM	Minimal inhibitory concentration against the formation of A. baumannii biofilm (MBEC) ([4]; listed as NBDP 5.8): 25 µM; Inhibition of the biofilm ([4]; isolate AB 02, peptide at 25 μM): > 95%; Minimal inhibitory concentration against the formation of A. baumannii biofilm (MBEC) ([5]; listed as NBDP 5.8): 25 µM; Inhibition of the biofilm ([5]; isolate AB 53, peptide at 25 μM): > 95%; Minimal inhibitory concentration against the formation of A. baumannii biofilm (MBEC) ([6]; listed as NBDP 5.8): 25 µM; Inhibition of the biofilm ([6]; isolate AB 72, peptide at 25 μM): > 95%
INWLKLGKAIIDAL-NH2 [Agelaia-MPI]				25 µM	6.25 µM	12.5 µM	6.25 µM		3.12 µM	Inhibition of biofilm formation (S. epidermidis biofilm): 85%; Inhibition of biofilm formation [10]: 85%
INWLKLGKMVIDAL-NH2 [Polybia-MPII]				25 µM	12.5 µM	25 µM	12.5 µM	6.25 µM	6.25 µM	Inhibition of biofilm formation (S. epidermidis biofilm): 85%; Inhibition of biofilm formation [10]: 85%
